Biological target: human GPR40 receptor (Homo sapiens, UniProt O14842)
Assay: IP1 accumulation measurements using the IPOne assay system in 1321N1 cells stably expressing human GPR40 receptor
Assay type: cell-based
Conditions: stimulation 1 h at 37° C.
Experimental: IP1 accumulation measurements using the IPOne assay system—1321N1 cells stably expressing human GPR40 receptor (Euroscreen, Belgium) are seeded 24 h before the assay in white 384-well plates in culture medium containing 10% FCS, 1% Na-Pyruvate and 400 μg/mL G418. IP1 is assayed according to the manufacturer's description (Cisbio Bioassays, France). In brief, the assay is started by substitution of the culture medium by stimulation buffer (Hepes 10 mM, CaCl2 1 mM, MgCl2 0.5 mM, KCl 4.2 mM, NaCl 146 mM, glucose 5.5 mM and LiCl 50 mM, pH 7.4). Cells are stimulated for 1 h at 37° C., 5% CO2 by addition of the compounds that are diluted in stimulation buffer containing LiCl. Assays are stopped by adding HTRF-conjugates (IP1-d2 and Anti-IP1 cryptate Tb) and lysis buffer, provided by the manufacturer. After an incubation time of 1 h at room temperature plates are measured using an EnVision™, Perkin Elmer. The obtained fluorescence ratios at 665/615 […] are then used to calculate the pEC50 values using Assay Explorer 3.3 Software (Accelrys, Inc.) by interpolation using an IP1 reference curve and subsequent sigmoidal curve fitting allowing for a variable hill slope.

Chain of human GPR40 receptor (O14842 whole entry): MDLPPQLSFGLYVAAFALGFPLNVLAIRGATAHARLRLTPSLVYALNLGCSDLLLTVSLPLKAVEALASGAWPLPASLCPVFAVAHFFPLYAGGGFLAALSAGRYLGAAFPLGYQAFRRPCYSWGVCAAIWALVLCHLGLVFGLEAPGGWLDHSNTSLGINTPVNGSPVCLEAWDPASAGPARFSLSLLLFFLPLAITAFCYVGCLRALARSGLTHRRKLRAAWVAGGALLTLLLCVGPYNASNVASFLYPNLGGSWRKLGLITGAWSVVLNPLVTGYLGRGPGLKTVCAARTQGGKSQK

In order of rising EC50:
1. Cc1nc2c(s1)CN(Cc1c(C(F)(F)F)ccc3c1CC[C@H]3Oc1ccc3c(c1)OC[C@H]3CC(=O)O)CC2 [Example 6, {(S)-6-[(R)-4-(2-Methyl-4,5,6,7-tetrahydro-thiazolo[5,4-c]pyridin-5-ylmethyl)-5-trifluoromethyl-indan-1-yloxy]-2,3-dihydro-benzofuran-3-yl}-acetic acid]  2 nM
2. O=C(O)C[C@@H]1COc2cc(O[C@@H]3CCc4c3ccc(C(F)(F)F)c4CN3CCOCC3)ccc21 [Example 1, {(S)-6-[(R)-4-Morpholin-4-ylmethyl-5-trifluoromethyl-indan-1-yloxy]-2,3-dihydro-benzofuran-3-yl}-acetic acid]  3 nM
3. O=C(O)C[C@@H]1COc2cc(O[C@@H]3CCc4c3ccc(C(F)(F)F)c4CN3CCSCC3)ccc21 [Example 3, {(S)-6-[(R)-4-Thiomorpholin-4-ylmethyl-5-trifluoromethyl-indan-1-yloxy]-2,3-dihydro-benzofuran-3-yl}-acetic acid]  3 nM
4. O=C(O)C[C@@H]1COc2cc(O[C@@H]3CCc4c3ccc(C(F)(F)F)c4CN3CCC(F)(F)CC3)ccc21 [Example 7, {(S)-6-[(R)-4-(4,4-Difluoro-piperidin-1-ylmethyl)-5-trifluoromethyl-indan-1-yloxy]-2,3-dihydro-benzofuran-3-yl}-acetic acid]  3 nM
5. O=C(O)C[C@@H]1COc2cc(O[C@@H]3CCc4c3ccc(C(F)(F)F)c4CN3CCCOCC3)ccc21 [Example 9, {(S)-6-[(R)-[1,4]Oxazepan-4-ylmethyl-5-trifluoromethyl-indan-1-yloxy]-2,3-dihydro-benzofuran-3-yl}-acetic acid]  3 nM
6. COC(=O)N1CCN(Cc2c(C(F)(F)F)ccc3c2CC[C@H]3Oc2ccc3c(c2)OC[C@H]3CC(=O)O)CC1 [Example 17, {(S)-6-[(R)-4-(4-Methoxycarbonyl-piperazin-1-ylmethyl)-5-trifluoromethyl-indan-1-yloxy]-2,3-dihydro-benzofuran-3-yl}-acetic acid]  4 nM
7. O=C(O)C[C@@H]1COc2cc(O[C@@H]3CCc4c3ccc(C(F)(F)F)c4CN3CCc4ncccc4C3)ccc21 [Example 28, {(S)-6-[(R)-4-(7,8-Dihydro-[1,6]naphthyridin-6-ylmethyl)-5-trifluoromethyl-indan-1-yloxy]-2,3-dihydro-benzofuran-3-yl}-acetic acid]  4 nM
8. O=C(O)C[C@@H]1COc2cc(O[C@@H]3CCc4c3ccc(C(F)(F)F)c4CN3CCCCC3)ccc21 [Example 5, {(S)-6-[(R)-4-Piperidin-1-ylmethyl-5-trifluoromethyl-indan-1-yloxy]-2,3-dihydro-benzofuran-3-yl}-acetic acid]  5 nM
9. O=C(O)C[C@@H]1COc2cc(O[C@@H]3CCc4c3ccc(C(F)(F)F)c4CN3CCC4(CC3)CC4)ccc21 [Example 8, {(S)-6-[(R)-4-(6-Aza-spiro[2.5]oct-6-ylmethyl)-5-trifluoromethyl-indan-1-yloxy]-2,3-dihydro-benzofuran-3-yl}-acetic acid]  5 nM
10. COC1CCN(Cc2c(C(F)(F)F)ccc3c2CC[C@H]3Oc2ccc3c(c2)OC[C@H]3CC(=O)O)CC1 [Example 10, {(S)-6-[(R)-4-(4-Methoxy-piperidin-1-ylmethyl)-5-trifluoromethyl-indan-1-yloxy]-2,3-dihydro-benzofuran-3-yl}-acetic acid]  5 nM
11. O=C(O)C[C@@H]1COc2cc(O[C@@H]3CCc4c3ccc(C(F)(F)F)c4CN3CCC4(CCCO4)CC3)ccc21 [Example 11, {(S)-6-[(R)-4-(1-Oxa-8-aza-spiro[4.5]dec-8-ylmethyl)-5-trifluoromethyl-indan-1-yloxy]-2,3-dihydro-benzofuran-3-yl}-acetic acid]  6 nM
12. O=C(O)C[C@@H]1COc2cc(O[C@@H]3CCc4c3ccc(C(F)(F)F)c4CN3CCCCCC3)ccc21 [Example 19, {(S)-6-[(R)-4-Azepan-1-ylmethyl-5-trifluoromethyl-indan-1-yloxy]-2,3-dihydro-benzofuran-3-yl}-acetic acid]  7 nM
13. CC1(C)CN(Cc2c(C(F)(F)F)ccc3c2CC[C@H]3Oc2ccc3c(c2)OC[C@H]3CC(=O)O)CCO1 [Example 23, {(S)-6-[(R)-4-(2,2-Dimethyl-morpholin-4-ylmethyl)-5-trifluoromethyl-indan-1-yloxy]-2,3-dihydro-benzofuran-3-yl}-acetic acid]  7 nM
14. O=C(O)C[C@@H]1COc2cc(O[C@@H]3CCc4c3ccc(C(F)(F)F)c4CN3CCC(CO)CC3)ccc21 [Example 13, {(S)-6-[(R)-4-(4-Hydroxymethyl-piperidin-1-ylmethyl)-5-trifluoromethyl-indan-1-yloxy]-2,3-dihydro-benzofuran-3-yl}-acetic acid]  9 nM
15. CCOC(=O)N1CCN(Cc2c(C(F)(F)F)ccc3c2CC[C@H]3Oc2ccc3c(c2)OC[C@H]3CC(=O)O)CC1 [Example 20, {(S)-6-[(R)-4-(4-Ethoxycarbonyl-piperazin-1-ylmethyl)-5-trifluoromethyl-indan-1-yloxy]-2,3-dihydro-benzofuran-3-yl}-acetic acid]  9 nM
16. C[C@@H]1CN(Cc2c(C(F)(F)F)ccc3c2CC[C@H]3Oc2ccc3c(c2)OC[C@H]3CC(=O)O)C[C@H](C)O1 [Example 18, {(S)-6-[(R)-4-(cis-2,6-Dimethyl-morpholin-4-ylmethyl)-5-trifluoromethyl-indan-1-yloxy]-2,3-dihydro-benzofuran-3-yl}-acetic acid]  11 nM
17. CCC(=O)N1CCN(Cc2c(C(F)(F)F)ccc3c2CC[C@H]3Oc2ccc3c(c2)OC[C@H]3CC(=O)O)CC1 [Example 21, {(S)-6-[(R)-4-(4-Propionyl-piperazin-1-ylmethyl)-5-trifluoromethyl-indan-1-yloxy]-2,3-dihydro-benzofuran-3-yl}-acetic acid]  12 nM
18. CC(C)OC(=O)N1CCN(Cc2c(C(F)(F)F)ccc3c2CC[C@H]3Oc2ccc3c(c2)OC[C@H]3CC(=O)O)CC1 [Example 22, {(S)-6-[(R)-4-(4-Isopropoxycarbonyl-piperazin-1-ylmethyl)-5-trifluoromethyl-indan-1-yloxy]-2,3-dihydro-benzofuran-3-yl}-acetic acid]  14 nM
19. O=C(O)C[C@@H]1COc2cc(O[C@@H]3CCc4c3ccc(C(F)(F)F)c4CN3CC4CCC(C3)O4)ccc21 [Example 24, {(S)-6-[(R)-4-(8-Oxa-3-aza-bicyclo[3.2.1]oct-3-ylmethyl)-5-trifluoromethyl-indan-1-yloxy]-2,3-dihydro-benzofuran-3-yl}-acetic acid]  14 nM
20. CC1(O)CCN(Cc2c(C(F)(F)F)ccc3c2CC[C@H]3Oc2ccc3c(c2)OC[C@H]3CC(=O)O)CC1 [Example 14, {(S)-6-[(R)-4-(4-Hydroxy-4-methyl-piperidin-1-ylmethyl)-5-trifluoromethyl-indan-1-yloxy]-2,3-dihydro-benzofuran-3-yl}-acetic acid]  15 nM
21. O=C(O)C[C@@H]1COc2cc(O[C@@H]3CCc4c3ccc(C(F)(F)F)c4CN3C4CCCC3CC4)ccc21 [Example 25, {(S)-6-[(R)-4-(8-Aza-bicyclo[3.2.1]oct-8-ylmethyl)-5-trifluoromethyl-indan-1-yloxy]-2,3-dihydro-benzofuran-3-yl}-acetic acid]  15 nM
22. CC(=O)N1CCN(Cc2c(C(F)(F)F)ccc3c2CC[C@H]3Oc2ccc3c(c2)OC[C@H]3CC(=O)O)CC1 [Example 16, {(S)-6-[(R)-4-(4-Acetyl-piperazin-1-ylmethyl)-5-trifluoromethyl-indan-1-yloxy]-2,3-dihydro-benzofuran-3-yl}-acetic acid]  16 nM
23. O=C(O)C[C@@H]1COc2cc(O[C@@H]3CCc4c3ccc(C(F)(F)F)c4CN3CCn4ccnc4C3)ccc21 [Example 27, {(S)-6-[(R)-4-(5,6-Dihydro-8H-imidazo[1,2-a]pyrazin-7-ylmethyl)-5-trifluoromethyl-indan-1-yloxy]-2,3-dihydro-benzofuran-3-yl}-acetic acid]  17 nM
24. CC(C)(C)OC(=O)N1CCN(Cc2c(C(F)(F)F)ccc3c2CC[C@H]3Oc2ccc3c(c2)OC[C@H]3CC(=O)O)CC1 [Example 2, {(S)-6-[(R)-4-(4-tert-Butoxycarbonyl-piperazin-1-ylmethyl)-5-trifluoromethyl-indan-1-yloxy]-2,3-dihydro-benzofuran-3-yl}-acetic acid]  20 nM
25. O=C(O)C[C@@H]1COc2cc(O[C@@H]3CCc4c3ccc(C(F)(F)F)c4CN3CC4CC4C3)ccc21 (stereo partly drawn) [Example 12, {(S)-6-[(R)-4-(3-Aza-bicyclo[3.1.0]hex-3-ylmethyl)-5-trifluoromethyl-indan-1-yloxy]-2,3-dihydro-benzofuran-3-yl}-acetic acid]  20 nM
26. CN1CCN(Cc2c(C(F)(F)F)ccc3c2CC[C@H]3Oc2ccc3c(c2)OC[C@H]3CC(=O)O)CC1=O [Example 26, {(S)-6-[(R)-4-(4-Methyl-3-oxo-piperazin-1-ylmethyl)-5-trifluoromethyl-indan-1-yloxy]-2,3-dihydro-benzofuran-3-yl}-acetic acid]  26 nM
27. O=C(O)C[C@@H]1COc2cc(O[C@@H]3CCc4c3ccc(C(F)(F)F)c4CN3CCCC3)ccc21 [Example 4, {(S)-6-[(R)-4-Pyrrolidin-1-ylmethyl-5-trifluoromethyl-indan-1-yloxy]-2,3-dihydro-benzofuran-3-yl}-acetic acid]  92 nM
28. O=C(O)C[C@@H]1COc2cc(O[C@@H]3CCc4c3ccc(C(F)(F)F)c4CN3CCNCC3)ccc21 [Example 15, {(S)-6-[(R)-4-piperazin-1-ylmethyl-5-trifluoromethyl-indan-1-yloxy]-2,3-dihydro-benzofuran-3-yl}-acetic acid]  468 nM

Source: patent US8927531B2, “Indanyloxydihydrobenzofuranylacetic acids” (Boehringer Ingelheim International GmbH, priority 2013, dated 2015)
